For six compounds, MIC results are on record in DBAASP.

Molecules are shown by their SMILES. In brackets after ≈: the same amount, converted by molar mass. Several values for one entry are separate records, joined by “and”; a condition that tells them apart may be missing. Equal entries are not always repeated.

Among the test systems are Ramulariopsis gossypii; Escherichia coli UB1005; Escherichia coli EC183; Candida albicans CA2761; Candida krusei CBS 573.
Holding throughout (assay): ≥ marks a high value that may be exact or a test limit, other limits are often not marked, values filed in µg/mL are converted to µM
Assay [1] concerns Bacillus subtilis ATCC 23857.
The test system of assay [2] is Xanthomonas campestris pv. citri.
The test system of assay [3] is Escherichia coli ATCC 25922.
Assay [4] deals with Pseudomonas aeruginosa ATCC 27853.
Assay [5] relates to Cryptococcus neoformans ATCC 28957.
The subject of assay [6] is Candida albicans ATCC 90028.
For assay [7], the system named is Salmonella enterica subsp. enterica serovar Typhimurium C77-31.
For assay [8], the system named is Candida krusei CGMCC 2.1857.
The subject of assay [9] is Staphylococcus aureus ATCC 29213.
Assay [10] deals with Candida albicans CGMCC 2.2086.
Assay [11] concerns Staphylococcus epidermidis ATCC 12228.
Assay [12] concerns Staphylococcus aureus ATCC 25923.
The subject of assay [13] is Bacillus subtilis CMCC 63501.
In assay [14] the test system is Candida tropicalis CGMCC 2.1975.
The test system of assay [15] is Saccharomyces cerevisiae SZMC 0644.
Assay [16] concerns Candida parapsilosis CBS 604.
Assay [17] relates to Candida albicans ATCC 10231.
In assay [18] the test system is Pseudomonas aeruginosa ATCC BAA-1744.
Assay [19] concerns Pseudomonas aeruginosa ATCC 25619.
Assay [20] deals with Pseudomonas aeruginosa ATCC 9027.
The test system of assay [21] is Pseudomonas aeruginosa ATCC 9721.
In assay [22] the test system is Acinetobacter baumannii NR-9667.
Assay [23] concerns Acinetobacter baumannii ATCC BAA-1605.
Assay [24] deals with Pseudomonas aeruginosa 1109.
Assay [25] relates to Pseudomonas aeruginosa ATCC 10145.
Assay [26] relates to Pseudomonas aeruginosa PAO1.
Assay [27] has as its system Pseudomonas aeruginosa ATCC 35032.
Assay [28] has as its system Acinetobacter baumannii ATCC 19606.
The subject of assay [29] is Acinetobacter baumannii ATCC BAA-747.
Assay [30] deals with Pseudomonas aeruginosa ATCC 15442.
Assay [31] deals with Enterococcus faecalis ATCC 29212.
Assay [32] concerns Salmonella enterica subsp. enterica serovar Pullorum C79-13.
Assay [33] has as its system Staphylococcus aureus ATCC 43300.

`CC[C@H](C)[C@H](NC(=O)[C@H](Cc1ccccc1)NC(=O)[C@@H](NC(=O)[C@H](CCC(N)=O)NC(=O)[C@H](Cc1ccc(O)cc1)NC(=O)[C@H](CCCN=C(N)N)NC(=O)[C@@H](NC(=O)[C@H](CC(C)C)NC(=O)[C@H](CCCCN)NC(=O)[C@H](CCC(N)=O)NC(=O)[C@H](CC(C)C)NC(=O)[C@H](CCC(=O)O)NC(=O)[C@H](CCCCN)NC(=O)[C@H](Cc1ccccc1)NC(=O)[C@H](CC(C)C)NC(=O)[C@H](CC(C)C)NC(=O)CN)[C@@H](C)CC)[C@@H](C)CC)C(=O)NCC(=O)N[C@@H](CCCCN)C(N)=O` [GLLFKELQKLIRYQIFIGK]: the MIC (in general, the lowest concentration that inhibits growth of the organism) in assay [1] was 16 µM (≈ 36.9 µg/mL); in the assay on Ramulariopsis gossypii, no less than 64 µM; in assay [2] it was no less than 128 µM; in assay [3], 26.7 µM (≈ 61.5 µg/mL); in assay [4] it was 128 µM (≈ 295 µg/mL); in [5], no less than 64 µM. The compound further came in with an MIC in assay [6] of no less than 64 µM.

`CC[C@H](C)[C@H](NC(=O)[C@H](Cc1c[nH]c2ccccc12)NC(=O)[C@H](CCCCN)NC(=O)[C@H](CC(C)C)NC(=O)[C@@H](NC(=O)[C@H](CCCCN)NC(=O)CNC(=O)[C@@H](NC(=O)[C@H](CCCCN)NC(=O)[C@H](CCCCN)NC(=O)[C@H](CC(C)C)NC(=O)[C@H](CCCN=C(N)N)NC(=O)[C@H](CCCCN)NC(=O)[C@H](CCCN=C(N)N)NC(=O)[C@@H](NC(=O)[C@H](CCCCN)NC(=O)[C@H](CCCCN)NC(=O)[C@H](CCCN=C(N)N)NC(=O)[C@H](CC(C)C)NC(=O)[C@H](CCCN=C(N)N)NC(=O)[C@@H](N)CCCN=C(N)N)[C@@H](C)O)[C@@H](C)CC)C(C)C)C(N)=O` [RRLRKKTRKRLKKIGKVLKWI]: the MIC amounted to 1 µM (≈ 2.7 µg/mL) in [7]; 2 µM (≈ 5.41 µg/mL) in assay [8]; 2 µM (≈ 5.41 µg/mL) in [3]; 2 µM (≈ 5.41 µg/mL) against Escherichia coli UB1005; 4 µM (≈ 10.8 µg/mL) in assay [9]; 8 µM (≈ 21.6 µg/mL) in [10]. For the same compound, the MIC in assay [11] is 4 µM (≈ 10.8 µg/mL); with Escherichia coli EC183 it was 1 µM (≈ 2.7 µg/mL); in assay [12], 4 µM (≈ 10.8 µg/mL); in [13], 1 µM (≈ 2.7 µg/mL); in assay [14] it was 1 µM (≈ 2.7 µg/mL); against Candida albicans CA2761, 8 µM (≈ 21.6 µg/mL).

Take `CC[C@H](C)[C@H](N)C(=O)N[C@@H](C)C(=O)N[C@H](C(=O)N[C@@H](CO)C(=O)N1CCC[C@H]1C(=O)N[C@@H](Cc1ccc(O)cc1)C(=O)N[C@@H](Cc1ccc(O)cc1)C(=O)N[C@@H](C)C(=O)N[C@H]1CSSC[C@@H](C(=O)N2CCC[C@H]2C(=O)O)NC(=O)[C@H](CC(N)=O)NC1=O)[C@@H](C)O` [IATSPYYACNCP]: the MIC was no less than 76.8 µM in [15], no less than 76.8 µM in [16], greater than 76.8 µM in assay [17] and no less than 76.8 µM with Candida krusei CBS 573.

Consider `CC[C@H](C)[C@H](NC(=O)[C@H](Cc1c[nH]c2ccccc12)NC(=O)[C@H](CCCCN)NC(=O)[C@H](CC(C)C)NC(=O)[C@@H](NC(=O)[C@H](CCCCN)NC(=O)CNC(=O)[C@@H](NC(=O)[C@H](CCCCN)NC(=O)[C@H](CCCCN)NC(=O)[C@H](CC(C)C)NC(=O)[C@H](CCCN=C(N)N)NC(=O)[C@H](CCCCN)NC(=O)[C@H](CCCN=C(N)N)NC(=O)[C@@H](NC(=O)[C@H](CCCCN)NC(=O)[C@H](CCCCN)NC(=O)[C@@H](N)CCCN=C(N)N)[C@@H](C)O)[C@@H](C)CC)C(C)C)C(N)=O` [RKKTRKRLKKIGKVLKWI], for which the MIC was 2 µM (≈ 4.56 µg/mL) in [7]; 4 µM (≈ 9.12 µg/mL) in [8]; 2 µM (≈ 4.56 µg/mL) in [3]; 2 µM (≈ 4.56 µg/mL) in the assay on Escherichia coli UB1005; 4 µM (≈ 9.12 µg/mL) in assay [9]; 16 µM (≈ 36.5 µg/mL) in assay [10]. Moreover, the MIC in assay [11] worked out at 4 µM (≈ 9.12 µg/mL); against Escherichia coli EC183 it was 1 µM (≈ 2.28 µg/mL); in assay [12], 8 µM (≈ 18.2 µg/mL); in [13], 1 µM (≈ 2.28 µg/mL); in assay [14] it was 2 µM (≈ 4.56 µg/mL); with Candida albicans CA2761 it was 8 µM (≈ 18.2 µg/mL).

Consider `CC[C@H](C)[C@H](NC(=O)[C@H](CCCCN)NC(=O)[C@H](CCCCN)NC(=O)[C@H](Cc1c[nH]c2ccccc12)NC(=O)[C@@H](NC(=O)[C@H](CCCCN)NC(=O)[C@@H](NC(=O)[C@H](CCCN=C(N)N)NC(=O)[C@H](CCCN=C(N)N)NC(=O)[C@H](CCCCN)NC(=O)[C@@H](N)Cc1c[nH]c2ccccc12)[C@@H](C)CC)[C@@H](C)CC)C(=O)N[C@@H](CCCN=C(N)N)C(=O)O` [WKRRIKIWKKIR], for which the MIC is no less than 256 µM in assay [18]; no less than 256 µM in assay [19]; greater than 256 µM in assay [20]; 256 µM (≈ 438 µg/mL) in assay [4]; no less than 256 µM in assay [21]; no less than 256 µM in assay [22]. Moreover, the MIC in assay [23] is no less than 256 µM; in assay [24], no less than 128 µM; in assay [25], no less than 256 µM; in [26], greater than 256 µM; in [27], no less than 256 µM; in assay [28], greater than 256 µM. For the same compound, the MIC in [29] and in [30] was no less than 256 µM each time.

Consider `CC[C@H](C)[C@H](NC(=O)[C@H](CCCN=C(N)N)NC(=O)[C@H](CCCCN)NC(=O)[C@H](Cc1ccccc1)NC(=O)[C@H](CCC(=O)O)NC(=O)[C@H](CCCCN)NC(=O)CN)C(=O)N[C@H](C(=O)N[C@@H](CCCCN)C(=O)N[C@@H](Cc1c[nH]c2ccccc12)C(=O)N1CCC[C@H]1C(=O)N[C@@H](Cc1c[nH]c2ccccc12)C(=O)N[C@@H](Cc1c[nH]c2ccccc12)C(=O)N1CCC[C@H]1C(=O)N[C@@H](Cc1c[nH]c2ccccc12)C(=O)N[C@@H](CCCN=C(N)N)C(=O)N[C@@H](CCCN=C(N)N)C(N)=O)C(C)C` [GKEFKRIVKWPWWPWRR], for which the MIC in [7] is 4 µM (≈ 9.42 µg/mL); in assay [31], 4 µM (≈ 9.42 µg/mL); in assay [32], 2 µM (≈ 4.71 µg/mL); in the assay with Escherichia coli UB1005 it was 2 µM (≈ 4.71 µg/mL); in assay [4], 16 µM (≈ 37.7 µg/mL); in assay [9] it was 4 µM and 8 µM. In addition, the MIC in [11] came out at 8 µM (≈ 18.8 µg/mL); in [13] it was 4 µM (≈ 9.42 µg/mL); in assay [33], 2 µM (≈ 4.71 µg/mL).
